The target in assay [1] is recombinant human ASK1 kinase (Homo sapiens (Human), UniProt Q99683). Kind of assay: TR-FRET ASK1 kinase assay (HTRF KinEASE-STK). The class given is biochemical. An excerpt: Dephosphorylated recombinant human ASK1 kinase was from Gilead Sciences. […] ATP (catalogue # 7724) was from Affymetrix (Santa Clara, Calif.) and test compounds were from Gilead Sciences. HTRF KinEASE™-STK S3 kit was obtained from Cisbio (Bedford, Mass.). All other reagents were of the highest grade commercially available. The assay measures the phosphorylation level of a biotinylated peptide substrate by the ASK1 kinase using HTRF detection (6.1). This is a competitive, time-resolved fluorescence resonance energy transfer (TR-FRET) immunoassay, based on HTRF® KinEASE™-STK manual from Cisbio (6.1). […] Peptide antibody labeled with 1× Eu^3+ Cryptate buffer containing 10 mM EDTA and 125 nM Streptavidin XL665 are added to stop the reaction and phosphorylated peptide substrate is detected using Envision 2103 Multilabeled reader from PerkinElmer. The fluorescence is measured at 615 nm (Cryptate) and 665 nm (XL665) and a ratio of 665 nm/615 nm is calculated for each well. The resulting TR-FRET level (a ratio of 665 nm/615 nm) is proportional to the phosphorylation level. Under these assay conditions, the degree of phosphorylation of peptide substrate was linear with time and concentration for the enzyme. The assay system yielded consistent results with regard to Km and specific activities for the enzyme. For inhibition experiments (IC50 values), activities were performed with constant concentrations of ATP, peptide and several fixed concentrations of inhibitors. […] All enzyme activity data are reported as an average of quadruplicate determination. […] Enzyme activity is expressed as the amount of Phosphate incorporated into substrate peptide from ATP. Range is the maximum y range (no inhibitor, DMSO control) and s is a slope factor (6.2). Results

In assay [2] the target is ASK1 (kinase active, 631-1381 of rat ASK1 cDNA) in 293/AP1-Luc cells (Rattus norvegicus, UniProt A0A8I6AEL0). As to the kind of experiment: ASK1 293 cell-based assay (Cellular EC50), AP-1:luciferase reporter. As to conditions: 293/AP1-Luc cells infected with adenovirus expressing ASK1, 24 hours. How it is done:
ASK1 (Apoptosis Signal-Regulating Kinase 1) 293 cell-based assay (Cellular EC50)
The cellular potency of compounds was assayed in cells stably expressing an AP-1: luciferase reporter construct (293/AP1-Luc cells—Panomics Inc., 6519 Dumbarton Circle, Fremont, Calif.). Cells were infected with an adenovirus expressing kinase active ASK1 (631-1381 of rat ASK1 cDNA), which will activate the AP-1 transcription factor and increase the expression of luciferase. Inhibitors of ASK1 will decrease the enzyme activity of ASK1 and therefore decrease the activity of AP-1 transcription factor and the expression of luciferase.
2. Reference Materials • 1. Panomics 293/AP1-Luc stable cell-line product insert. • 2. Promega Steady-Glo Luciferase Assay System product insert. 3. Media Required 3. Complete Growth Medium, “CGM” • a. DMEM (MediaTech) • b. 10% FBS • c. 1% PSG • d. 100 ug/mL HygromycinB 4. Assay Medium, “AM” • a. DMEM (Invitrogen) • b. 25 mM HEPES • c. 1 mM Sodium Pyruvate • d. 1% PSG 4. Methods Maintenance: • 1. 293/AP1-Luc Maintain 293/Acells per vendor's instructions; harvest cells at ˜80% confluence in T150 flasks as follows: • a. Aspirate media, wash gently with ˜12 mL sterile D-PBS, aspirate. • b. Add 5 mL Trypsin-EDTA, tilt gently to coat flask, and incubate ˜5 min. at 37° C. • c. […] Aspirate media from cell pellet, add 20 to 30 mL CGM, resuspend pellet by pipeting 6×, pass through cell strainer to disperse clumps (if necessary), and count cells with hemocytometer. Assay Day 1: 2. Harvest cells as above, except resuspend cell pellet. Count cells and dilute to 1.5×10^5 cells per mL; add adenovirus such that there are 5 infectious forming units per cell. 3. Prime (20 to 30 mL) and plate cells in Greiner poly-D-Lysine coated 384-well plates at 1.2×10^4 cells per well using BioTek uFill (80 uL per well). 4. Immediately dose plates with 0.4 uL of compound dose series (in 100% DMSO) incubate 24 hours in humidified incubator (37° C., 5% CO2). Assay Day 2: 5. Process plates (per manufacturer's instructions) as follows: • a. Set plates in laminar flow hood & uncover for 30 minutes at room temperature to cool. • b. Remove 60 uL of AM from assay wells • c. Add 20 uL per well Steady-Glo Firefly substrate, let sit for 10-20 minutes at room temperature • d. Cover bottom of assay plates with white backing tape. • e. Acquire data on a […] plate reader
For orientation: In a reporter assay the amount or activity of a reporter protein is the signal.

[3] abbreviates: Compounds 6-17, same competitive TR-FRET immunoassay.
Where [4] appears, read: TR-FRET, 100 μM ATP, 4 nM ASK1 kinase, average of quadruplicate.

recombinant human ASK1 kinase, sequence (Q99683 whole entry): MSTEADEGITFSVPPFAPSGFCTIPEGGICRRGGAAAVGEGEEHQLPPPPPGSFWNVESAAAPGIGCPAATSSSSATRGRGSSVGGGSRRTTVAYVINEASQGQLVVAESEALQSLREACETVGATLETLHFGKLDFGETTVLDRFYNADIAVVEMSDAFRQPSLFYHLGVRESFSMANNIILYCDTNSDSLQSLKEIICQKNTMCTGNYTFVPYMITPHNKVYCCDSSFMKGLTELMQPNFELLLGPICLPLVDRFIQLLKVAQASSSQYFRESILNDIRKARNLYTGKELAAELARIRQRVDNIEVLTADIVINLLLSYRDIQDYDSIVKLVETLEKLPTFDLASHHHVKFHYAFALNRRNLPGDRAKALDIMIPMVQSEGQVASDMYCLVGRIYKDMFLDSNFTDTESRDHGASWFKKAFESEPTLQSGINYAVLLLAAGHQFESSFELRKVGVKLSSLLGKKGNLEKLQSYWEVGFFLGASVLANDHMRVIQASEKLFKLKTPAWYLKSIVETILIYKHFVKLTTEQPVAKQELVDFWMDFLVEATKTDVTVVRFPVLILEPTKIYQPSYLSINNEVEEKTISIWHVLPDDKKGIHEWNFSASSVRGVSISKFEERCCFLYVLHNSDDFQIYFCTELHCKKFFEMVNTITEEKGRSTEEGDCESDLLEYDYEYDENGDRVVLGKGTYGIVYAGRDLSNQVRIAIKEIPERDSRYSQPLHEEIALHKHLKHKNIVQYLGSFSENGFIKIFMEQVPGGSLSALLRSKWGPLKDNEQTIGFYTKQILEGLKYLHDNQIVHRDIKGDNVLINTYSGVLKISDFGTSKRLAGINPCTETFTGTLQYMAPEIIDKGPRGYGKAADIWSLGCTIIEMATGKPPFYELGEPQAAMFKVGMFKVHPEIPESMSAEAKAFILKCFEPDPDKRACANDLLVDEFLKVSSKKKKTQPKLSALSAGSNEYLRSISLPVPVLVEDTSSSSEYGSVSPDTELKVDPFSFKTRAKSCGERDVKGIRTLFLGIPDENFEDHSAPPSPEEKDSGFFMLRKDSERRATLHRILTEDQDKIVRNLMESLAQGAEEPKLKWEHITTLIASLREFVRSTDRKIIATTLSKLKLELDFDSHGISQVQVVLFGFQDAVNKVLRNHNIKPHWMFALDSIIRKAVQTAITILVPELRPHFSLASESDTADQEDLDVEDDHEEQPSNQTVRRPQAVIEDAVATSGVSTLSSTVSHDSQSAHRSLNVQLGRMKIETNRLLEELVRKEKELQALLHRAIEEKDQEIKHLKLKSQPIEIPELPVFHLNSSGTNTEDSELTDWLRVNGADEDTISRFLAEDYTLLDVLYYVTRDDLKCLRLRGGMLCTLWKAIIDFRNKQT
ASK1 (kinase active, 631-1381 of rat ASK1 cDNA) in 293/AP1-Luc cells, sequence (A0A8I6AEL0 1-1381): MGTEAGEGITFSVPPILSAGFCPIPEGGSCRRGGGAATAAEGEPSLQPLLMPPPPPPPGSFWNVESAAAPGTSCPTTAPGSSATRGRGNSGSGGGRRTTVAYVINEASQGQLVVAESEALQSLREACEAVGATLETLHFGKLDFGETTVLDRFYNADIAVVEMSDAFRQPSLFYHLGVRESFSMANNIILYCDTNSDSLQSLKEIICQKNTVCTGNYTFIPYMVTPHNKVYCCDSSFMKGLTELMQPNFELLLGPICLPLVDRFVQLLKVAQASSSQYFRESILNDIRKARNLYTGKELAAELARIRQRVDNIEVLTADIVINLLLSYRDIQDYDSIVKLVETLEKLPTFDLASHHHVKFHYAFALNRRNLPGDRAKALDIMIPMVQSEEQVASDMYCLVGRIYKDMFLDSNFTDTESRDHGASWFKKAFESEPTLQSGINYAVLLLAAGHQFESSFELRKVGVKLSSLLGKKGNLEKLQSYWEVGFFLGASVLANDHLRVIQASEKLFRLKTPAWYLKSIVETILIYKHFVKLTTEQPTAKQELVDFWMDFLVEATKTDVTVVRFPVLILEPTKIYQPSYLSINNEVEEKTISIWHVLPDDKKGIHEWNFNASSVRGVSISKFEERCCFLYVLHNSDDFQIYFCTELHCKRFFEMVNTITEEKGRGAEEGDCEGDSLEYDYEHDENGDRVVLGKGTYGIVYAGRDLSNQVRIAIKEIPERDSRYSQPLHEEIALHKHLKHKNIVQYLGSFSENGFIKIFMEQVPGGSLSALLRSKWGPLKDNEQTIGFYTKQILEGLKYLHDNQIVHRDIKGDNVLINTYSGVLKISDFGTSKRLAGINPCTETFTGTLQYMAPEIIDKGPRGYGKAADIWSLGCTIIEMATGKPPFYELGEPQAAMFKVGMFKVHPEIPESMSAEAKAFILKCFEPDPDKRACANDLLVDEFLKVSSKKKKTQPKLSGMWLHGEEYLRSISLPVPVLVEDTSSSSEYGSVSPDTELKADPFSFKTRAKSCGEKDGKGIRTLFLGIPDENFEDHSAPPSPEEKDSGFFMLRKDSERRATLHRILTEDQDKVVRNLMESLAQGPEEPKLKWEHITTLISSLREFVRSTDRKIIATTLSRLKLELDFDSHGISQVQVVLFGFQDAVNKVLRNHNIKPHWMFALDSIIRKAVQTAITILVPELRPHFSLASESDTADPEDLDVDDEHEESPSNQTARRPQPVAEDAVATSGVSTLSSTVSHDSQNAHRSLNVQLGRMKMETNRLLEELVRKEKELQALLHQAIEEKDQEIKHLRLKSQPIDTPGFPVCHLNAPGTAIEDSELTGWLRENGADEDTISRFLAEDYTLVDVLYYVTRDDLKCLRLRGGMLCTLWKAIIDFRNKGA

For the molecule `C[C@H](n1cnnc1-c1nc(NC(=O)c2cc(-n3cnc(C4CC4)c3)c(N3CCC(O)C3)cn2)cs1)C(F)(F)F` (stereo partly drawn) [Example 11, 4-(4-cyclopropyl-1H-imidazol-1-yl)-5-(3-hydroxypyrrolidin-1-yl)-N-(2-(4-((S)-1,1,1-trifluoropropan-2-yl)-4H-1,2,4-triazol-3-yl)thiazol-4-yl)picolinamide], the IC50 – broadly, the concentration at which inhibition is half-maximal – in assay [1] (setting [3]) amounted to 2.2 nM.

Consider `C[C@H](n1cnnc1-c1nc(NC(=O)c2cc(-n3cnc(C4CC4)c3)c(N3CCCC3)cn2)cs1)C(F)(F)F` [Example 8, (S)-4-(4-cyclopropyl-1H-imidazol-1-yl)-5-(pyrrolidin-1-yl)-N-(2-(4-(1,1,1-trifluoropropan-2-yl)-4H-1,2,4-triazol-3-yl)thiazol-4-yl)picolinamide], for which, in assay [1] (setting [3]), the IC50 turned out to be 2.2 nM.

As for `O=C(Nc1csc(-c2nncn2C2CC2)n1)c1cc(-n2cnc(C3CC3)c2)c(N2CCCC2)cn1` [Example 9, 4-(4-cyclopropylimidazol-1-yl)-N-[2-(4-cyclopropyl-1,2,4-triazol-3-yl)-1,3-thiazol-4-yl]-5-pyrrolidin-1-ylpyridine-2-carboxamide], in assay [1] (setting [3]), the IC50 came out at 1.9 nM.

Consider `C[C@H](n1cnnc1-c1nc(NC(=O)c2cc(-n3cnc(C4CC4)c3)c(N3CCN(C)CC3)cn2)cs1)C(F)(F)F` [Example 16, (S)-4-(4-cyclopropyl-1H-imidazol-1-yl)-5-(4-methylpiperazin-1-yl)-N-(2-(4-(1,1,1-trifluoropropan-2-yl)-4H-1,2,4-triazol-3-yl)thiazol-4-yl)picolinamide], for which the 50% inhibitory concentration (IC50) in assay [1] (setting [3]) stood at 2.1 nM.

With `CC1(O)CN(c2cnc(C(=O)Nc3csc(-c4nncn4C4CC4)n3)cc2-n2cnc(C3CC3)c2)C1` [Example 2, 4-(4-cyclopropyl-1H-imidazol-1-yl)-N-(2-(4-cyclopropyl-4H-1,2,4-triazol-3-yl)thiazol-4-yl)-5-(3-hydroxy-3-methylazetidin-1-yl)picolinamide], the half-maximal inhibitory concentration (IC50) in assay [1] (setting [4]) was 1.58 nM. Moreover, the EC50 – broadly, the concentration at which the effect is half-maximal – in assay [2] worked out at 11.2 nM.

For `C[C@H](n1cnnc1-c1nc(NC(=O)c2cc(-n3cnc(C4CC4)c3)c(N3CC(C)(O)C3)cn2)cs1)C(F)(F)F` [Example 4, (S)-4-(4-cyclopropyl-1H-imidazol-1-yl)-5-(3-hydroxy-3-methylazetidin-1-yl)-N-(2-(4-(1,1,1-trifluoropropan-2-yl)-4H-1,2,4-triazol-3-yl)thiazol-4-yl)picolinamide], in assay [1] (setting [4]), the IC50 was 1.69 nM. The molecule also yielded an EC50 in assay [2] of 5.21 nM.

On to `C[C@H](n1cnnc1-c1nc(NC(=O)c2cc(-n3cnc(C4CC4)c3)c(N3CCC3)cn2)cs1)C(F)(F)F` [Example 7, (S)-5-(azetidin-1-yl)-4-(4-cyclopropyl-1H-imidazol-1-yl)-N-(2-(4-(1,1,1-trifluoropropan-2-yl)-4H-1,2,4-triazol-3-yl)thiazol-4-yl)picolinamide], for which the 50% inhibitory concentration (IC50) in assay [1] (setting [3]) stood at 1.7 nM.

Take `C[C@H](n1cnnc1-c1nc(NC(=O)c2cc(-n3cnc(C4CC4)c3)c(N(C)C)cn2)cs1)C(F)(F)F` [Example 5, (S)-4-(4-cyclopropyl-1H-imidazol-1-yl)-5-(dimethylamino)-N-(2-(4-(1,1,1-trifluoropropan-2-yl)-4H-1,2,4-triazol-3-yl)thiazol-4-yl)picolinamide]: the concentration for half-maximal inhibition (IC50) in assay [1] (setting [4]) was 1.88 nM. In assay [2], the EC50 was 7.12 nM.

Consider `O=C(Nc1csc(-c2nncn2C2CC2)n1)c1cc(-n2cnc(C3CC3)c2)c(N2CCCCC2)cn1` [Example 12, 4-(4-cyclopropylimidazol-1-yl)-N-[2-(4-cyclopropyl-1,2,4-triazol-3-yl)-1,3-thiazol-4-yl]-5-piperidin-1-ylpyridine-2-carboxamide], for which the 50% inhibitory concentration (IC50) in assay [1] (setting [3]) is 2 nM.

For `O=C(Nc1csc(-c2nncn2C2CC2)n1)c1cc(-n2cnc(C3CC3)c2)c(N2CCC(O)C2)cn1` (stereo not shown) [Example 10, 4-(4-cyclopropylimidazol-1-yl)-N-[2-(4-cyclopropyl-1,2,4-triazol-3-yl)-1,3-thiazol-4-yl]-5-(3-hydroxypyrrolidin-1-yl)pyridine-2-carboxamide], the IC50 in assay [1] (setting [3]) was found to be 3 nM.

For `CN1CCN(c2cnc(C(=O)Nc3csc(-c4nncn4C4CC4)n3)cc2-n2cnc(C3CC3)c2)CC1` [Example 17, 4-(4-cyclopropylimidazol-1-yl)-N-[2-(4-cyclopropyl-1,2,4-triazol-3-yl)-1,3-thiazol-4-yl]-5-(4-methylpiperazin-1-yl)pyridine-2-carboxamide], in assay [1] (setting [3]), the IC50 was 3.1 nM.

Consider `O=C(Nc1csc(-c2nncn2C2CC2)n1)c1cc(-n2cnc(C3CC3)c2)c(N2CCC2)cn1` [Example 6, 5-(azetidin-1-yl)-4-(4-cyclopropylimidazol-1-yl)-N-[2-(4-cyclopropyl-1,2,4-triazol-3-yl)-1,3-thiazol-4-yl]pyridine-2-carboxamide], for which, in assay [1] (setting [3]), the 50% inhibitory concentration (IC50) came to 2.4 nM.

Regarding `C[C@H](n1cnnc1-c1nc(NC(=O)c2cc(-n3cnc(C4CC4)c3)c(N3CCOCC3)cn2)cs1)C(F)(F)F` [Example 3, (S)-4-(4-cyclopropyl-1H-imidazol-1-yl)-5-morpholino-N-(2-(4-(1,1,1-trifluoropropan-2-yl)-4H-1,2,4-triazol-3-yl)thiazol-4-yl)picolinamide], the half-inhibitory concentration (IC50) in assay [1] (setting [4]) was 2.62 nM. In assay [2], the EC50 was found to be 6.74 nM.

For the molecule `O=C(Nc1csc(-c2nncn2C2CC2)n1)c1cc(-n2cnc(C3CC3)c2)c(N2CCOCC2)cn1` [Example 1, 4-(4-cyclopropyl-1H-imidazol-1-yl)-N-(2-(4-cyclopropyl-4H-1,2,4-triazol-3-yl)thiazol-4-yl)-5-morpholinopicolinamide], the IC50 in assay [1] (setting [4]) is 1.44 nM. The midpoint of the response in assay [2], the EC50, lay at 13.2 nM.

As to `CC1(O)CCN(c2cnc(C(=O)Nc3csc(-c4nncn4C4CC4)n3)cc2-n2cnc(C3CC3)c2)CC1` [Example 15, 4-(4-cyclopropylimidazol-1-yl)-N-[2-(4-cyclopropyl-1,2,4-triazol-3-yl)-1,3-thiazol-4-yl]-5-(4-hydroxy-4-methylpiperidin-1-yl)pyridine-2-carboxamide], the concentration for half-maximal inhibition (IC50) in assay [1] (setting [3]) turned out to be 2.5 nM.

Turning to `C[C@H](n1cnnc1-c1nc(NC(=O)c2cc(-n3cnc(C4CC4)c3)c(N3CCCCC3)cn2)cs1)C(F)(F)F` [Example 13, (S)-4-(4-cyclopropyl-1H-imidazol-1-yl)-5-(piperidin-1-yl)-N-(2-(4-(1,1,1-trifluoropropan-2-yl)-4H-1,2,4-triazol-3-yl)thiazol-4-yl)picolinamide], in assay [1] (setting [3]), the IC50 turned out to be 0.7 nM.

Turning to `C[C@H](n1cnnc1-c1nc(NC(=O)c2cc(-n3cnc(C4CC4)c3)c(N3CCC(C)(O)CC3)cn2)cs1)C(F)(F)F` [Example 14, (S)-4-(4-cyclopropyl-1H-imidazol-1-yl)-5-(4-hydroxy-4-methylpiperidin-1-yl)-N-(2-(4-(1,1,1-trifluoropropan-2-yl)-4H-1,2,4-triazol-3-yl)thiazol-4-yl)picolinamide], in assay [1] (setting [3]), the IC50 was determined as 1.8 nM.

These data come from US9051313B2, “Apoptosis signal-regulating kinase inhibitors” (Gilead Sciences, Inc., priority 2012, dated 2015).
